From patent US20240117313A1, “METHOD FOR PRODUCING THREE-DIMENSIONAL TISSUE BODY AND METHOD FOR PROMOTING DIFFERENTIATION OF ADIPOSE-DERIVED STEM CELLS” (TOPPAN INC., priority 2021, published 2024)
Like-named read-outs stand apart in the source and are kept apart here.

Experiments:
[1] = test system: subcutaneous fat-derived stein cells; settings: day 7 of differentiation
Description: (§1) Onto a 96-well plate (manufactured by IWAKI), 2 μL of FBS-free DMEM containing 1.2% by weight (final concentration) of the defibered collagen component, 6 mg/mL (final concentration) fibrinogen, 3 U/mL (final concentration) thrombin, and 5×10^6 cells/mL of subcutaneous fat-derived stein cells was seeded and incubated for 15 minutes, 200 μL of DMEM culture medium was then added, and culture was performed for 48 hours.
The three-dimensional tissue constructs obtained were each subjected to fat staining with Nile red, and Hoechst staining for staining nuclei. In the same manner as in Production Example 1, fluorescence intensity for fat staining (Nile red) relative to fluorescence intensity for nucleic staining (Hoechst) was calculated, and increase rates of fluorescence intensity with reference to that of the three-dimensional tissue constructs cultured in DMEM culture medium containing no ALK5 inhibitor were calculated (three samples were used for each conditions).

[2] = test system: subcutaneous fat-derived stein cells; settings: for adipogenesis (fat staining with Nile red): FIG. 5
Description: as §1

Q: Which “increase in fluorescence intensity (Nile red relative to Hoechst)” value ([1]; 5 μM or more of the ALK5 inhibitor in DMEM with seven fatty acids each 50 μM, vs no ALK5 inhibitor, FIG. 4) does the source give for `Cc1cccc(-c2n[nH]cc2-c2ccc3ncccc3n2)n1` [ALK5 inhibitor, 2-[3-(6-methyl-2-pyridinyl)-1H-pyrazol-4-yl]-1,5-naphthyridine] here?
A: ≥ 3 fold

Q: And the “adipogenesis (fat staining with Nile red)” value (“adipogenesis” below) ([1]; ALK5 inhibitor 1, 5 or 10 μM in DMEM with seven fatty acids each 50 μM, vs medium containing no ALK5 inhibitor, FIG. 3)?
A: had proceeded more

Q: What about the “differentiation of fat-derived stein cells into mature adipocytes” value ([1]; addition of the ALK5 inhibitor to DMEM with seven fatty acids each 50 μM) of the same compound?
A: promoted

Q: What about the “adipogenesis” value ([2]; ALK5 inhibitor 5 μM with seven fatty acids each in 50 IIM, day 3, day 7 and day 14 of differentiation) of the same compound?
A: had proceeded

Q: What about the “difference in increase rates of fluorescence intensity between day 7 and day 14 of culture” value ([2]; ALK5 inhibitor 5 μM, FIG. 6) of the same compound?
A: No large difference

Q: And the “adipogenesis” value ([2]; ALK5 inhibitor 5 μM, day 7 of culture and day 14 of culture (in particular))?
A: had more proceeded

Q: What about the “increase in fluorescence intensity vs medium containing no ALK5 inhibitor” value ([2]; ALK5 inhibitor 5 μM, day 7 of culture and day 14 of culture, FIG. 6) of the same compound?
A: significant
